Data: patent publication US20090176839A1, “FORMULATIONS OF 3-(6-(1-(2,2-DIFLUOROBENZO[D][1,3]DIOXOL-5-YL) CYCLOPROPANECARBOXAMIDO)-3-METHYLPYRIDIN-2-YL)BENZOIC ACID” (priority 2007, published 2009)
Entries after “also recorded” stand apart in the source; their conditions may differ.

Assays:
[1] = Acute oral toxicity study in mice; conditions: mouse, in vivo, po
Protocol: (§1) The intended clinical route of administration is oral, thus oral toxicity studies were done in mice, rats and dogs. […] Effects of repeat oral dosing were assessed in rats and dogs in preliminary 7-day toxicity studies followed by a 14-day GLP1 toxicity studies.

[2] = tested on: mice; test: Acute oral toxicity study in mice; conditions: mice; single oral doses 500, 1000 or 2000 mg/kg
Protocol: as §1

[3] = Toxicokinetics in acute oral toxicity study in mice; assay type: in vivo; conditions: plasma
Source text: Compound 1 was well absorbed in mice with time to reach maximum plasma concentrations (tmax) ranging from 0.5 to 2.0 hr. […] There were no significant gender-related effects in Compound 1 exposures noted.

[4] = in vivo; parameters: species or system rats; conditions: rat
Protocol: (§2) The animals were dosed orally with the vehicle (0.5% methylcellulose in water), or 15, 75, or 150 mg/kg Compound 1 twice daily for 7 consecutive days. The two daily doses were administered approximately 10 hours apart and the dose volume was 5 mL/kg/b.i.d. for all dose groups. At the end of the dosing period, all animals were euthanized and necropsied. Satellite animals (6/sex/Groups 2-4) were dosed in the same manner as the toxicity animals and plasma samples were collected on Days 1 and 7 for toxicokinetic (TK) analysis. Parameters evaluated during the study were: viability, clinical observations, body weights, feed consumption, clinical pathology (termination), organ weights, macroscopic observations and microscopic pathology.

[5] = tested on: rats; test: in vivo; conditions: rat
Protocol: as §2

[6] = Toxicokinetics in 7-day dose range finding study in dogs; assay type: in vivo; conditions: 100 mg/kg/day; for Cmax: dog, plasma, oral
Protocol: One dog per gender was dosed orally with the vehicle (0.5% methylcellulose+0.5% Tween80 in water), or 25, 50, or 100 mg/kg/day Compound 1 for 7 consecutive days. The dose volume was 5 mL/kg/day for all dose groups. Plasma samples were collected on Days 1 and 7 for TK analysis and viability, clinical observations, body weights, feed consumption, clinical pathology (termination), organ weights, macroscopic observations, and microscopic pathology were evaluated.
The plasma AUC0-24 data on Day 1 was consistent with previously conducted single dose studies of Compound 1 in the dog.

[7] = Toxicokinetics in 14-day oral toxicity study in dogs; conditions: dog, in vivo, 200 mg/kg/day
Source text: There were no major differences noted in TK parameters between males and females, or when comparing study Day 1 to study Day 14.

[8] = tested on: male mice; test: In vivo mouse micronucleus assay; conditions: oral gavage at doses up to 2000 mg/kg
Protocol: The potential for genetic toxicology was tested using standard GLP bacterial mutation (Ames), Chinese hamster ovary (CHO) chromosome aberration, and in vivo mouse micronucleus assays: Compound 1 was negative in all tests. […] With the exception of the preliminary 7-day toxicity studies, all studies were performed according to GLP regulations.

[9] = Pharmacokinetics in cynomolgus monkeys; assay type: in vivo; conditions: monkey
Protocol: The pharmacokinetics of Compound 1 were assessed in the same species used in the toxicology studies: CD-1 mice, Sprague Dawley rats and beagle dogs. The pharmacokinetics of Compound 1 were also assessed in cynomolgus monkeys.

[10] = Stability of 6 mg/mL aqueous methylcellulose suspension (HPLC, XRPD); assay type: physicochemical; conditions: room temperature; for Peak purity %: 6 mg/mL aqueous methylcellulose suspension
Protocol: A 100 mL stock solution of 0.5% by weight methylcellulose was prepared by stirring 0.5 g of methylcellulose with 99.5 g of purified water until completely dissolved (approximately 24 hours). […] The desired amount of 0.5% methylcellulose stock solution for making a 6 mg/mL based on free base (6.48 mg/mL based on HCl salt) was transferred into the vial and sonicated for 20 minutes and homogenized for approximately 5 minutes.
The methylcellulose formulation was also subjected to HPLC analysis at 0 and 24 hours: […]

[11] = male, beagle, dog, in vivo, 200 mg/kg
[12] = in vivo; conditions: dog, po
Protocol: (§3) Repeat-dose oral toxicity studies of 7- and 14-days duration have been conducted in rats (up to 600 mg/kg/day) and dogs (up to 200 mg/kg/day).

[13] = in vivo; conditions: male, beagle, dog, 200 mg/kg
[14] = tested on: rats; test: 14-day repeat-dose oral toxicity study in rats; conditions: assuming efficacious dose in rats 2.3 mg/kg b.i.d. (Ctrough at EC90)
Protocol: as §3

With Cc1ccc(NC(=O)C2(c3ccc4c(c3)OC(F)(F)O4)CC2)nc1-c1cccc(C(=O)O)c1 [Compound 1, 3-(6-(1-(2,2-difluorobenzo[d][1,3]dioxol-5-yl)cyclopropanecarboxamido)-3-methylpyridin-2-yl)benzoic acid] the MTD at 14 days [1] was over 2000 mg/kg, the NOAEL at 14 days [1] was over 2000 mg/kg and the “organ weights and gross observations at necropsy” value [2] was “no effects on organ weights and no gross observations”. For the same compound, the Cmax ([3]; CD-1, mouse, 2000 mg/kg, Female) was 325 µg/mL, the AUC(0-t) ([3]; CD-1, mouse, 2000 mg/kg, Female, read-out: AUC0-24 h) was 2900 µg·h/mL and the Tmax ([3]; CD-1, mouse, 2000 mg/kg, Female, read-out: tmax) was 1 h. The Cmax ([3]; CD-1, mouse, 2000 mg/kg, Male) was 264 µg/mL, the AUC(0-t) ([3]; CD-1, mouse, 2000 mg/kg, Male, read-out: AUC0-24 h) was 2680 µg·h/mL and the Tmax ([3]; CD-1, mouse, 2000 mg/kg, Male, read-out: tmax) was 1 h. For the same compound, the half-life ([3]; both sexes, mouse, 500 to 2000 mg/kg, read-out: elimination half-life (t1/2)) was 4.1 to 8.6 h, the Tmax ([3]; both sexes, mouse, 500 to 2000 mg/kg, read-out: time to reach maximum plasma concentrations (tmax)) was 0.5 to 2 h and the AUC(0-t) ([3]; female, mouse, females at 500 mg/kg, read-out: AUC0-24hr) was 1840 µg·h/mL. The Cmax ([3]; female, mouse, females at 2000 mg/kg) was 325 µg/mL, the Cmax ([3]; male, mouse, males at 500 mg/kg) was 142 µg/mL and the NOAEL at 7 days [4] was 300 mg/kg/day. For the same compound, the “gross lesions and histopathological findings” value [5] was “no test article related gross lesions or histopathological findings”, the adrenal gland weights ([5]; 300 mg/kg/day) was “higher adrenal gland weights” and the body weight ([5]; 300 mg/kg/day) was “minor effects on body weight”. The serum potassium ([5]; 300 mg/kg/day) was “lower serum potassium”, the “urinary pH” value ([5]; 300 mg/kg/day) was “slight increase in urinary pH” and the average plasma concentrations ([6]; female) was 38 µM. For the same compound, the average plasma concentrations ([6]; male) was 16 µM, the Cmax ([6]; female) was about 130 µM and the Cmax ([6]; male) was about 110 µM. The AUC(0-t) ([7]; both sexes, dogs, at the NOAEL (200 mg/kg/day), read-out: average AUC0-24hr) was 645 µg·h/mL, the Cmax ([7]; both sexes, dogs, at the NOAEL (200 mg/kg/day), read-out: average Cmax) was 75 µg/mL and the Tmax ([7]; female, beagle, Study Day 1, Female) was 4 h. For the same compound, the AUC(0-t) ([7]; female, beagle, Study Day 1, Female, read-out: AUC0-24 hr) was 573 µg·h/mL, the Cmax ([7]; female, beagle, Study Day 1, Female, read-out: Cmax) was 56 µg/mL and the Tmax ([7]; female, beagle, Study Day 14, Female) was 3 h. For the same compound, the AUC(0-t) ([7]; female, beagle, Study Day 14, Female, read-out: AUC0-24 hr) was 720 µg·h/mL, the Cmax ([7]; female, beagle, Study Day 14, Female, read-out: Cmax) was 77 µg/mL and the Tmax ([7]; male, beagle, Study Day 1, Male) was 3 h. The AUC(0-t) ([7]; male, beagle, Study Day 1, Male, read-out: AUC0-24 hr) was 691 µg·h/mL, the Cmax ([7]; male, beagle, Study Day 1, Male, read-out: Cmax) was 77 µg/mL and the Tmax ([7]; male, beagle, Study Day 14, Male) was 3 h. For the same compound, the AUC(0-t) ([7]; male, beagle, Study Day 14, Male, read-out: AUC0-24 hr) was 598 µg·h/mL, the Cmax ([7]; male, beagle, Study Day 14, Male, read-out: Cmax) was 72 µg/mL and the “number of micronucleated polychromatic erythrocytes” value [8] was “negative; also recorded: did not induce a significant increase”. For the same compound, the clearance [9] was “very low clearance”, the Peak purity % ([10]; T(0)) was 99.41% and the Peak purity % ([10]; T(24 h)) was 99.37%. The “physically and chemically stable, time” value ([10]; methylcellulose formulation) was “at least 24 hrs”, the F [11] was 20% and the tlast [11] was 48 h. For the same compound, the NOAEL at 14 days [12] was 200 mg/kg/day, the AUC(0-inf) [13] was 288 µg·h/mL and the Cmax [13] was 52 µg/mL. For the same compound, the concentration at 48 hr [13] was 0.063 µg/mL, the Tmax ([13]; po) was 1.7 h and the half-life ([13]; po) was 6.1 h. The “projected safety margin from the rat NOAEL” value [14] was 130 ×.
